Columns and labels:
[1] = system: MIA PACA-2 human pancreatic carcinoma cells; experiment: Cell proliferation (colony formation) assay, PaCa-2; assay type: cell-based; conditions: cancer cell line PaCa-2, 4 h exposure, colonies scored after 10-15 days, compounds added in micromolar concentrations, read-out: Average IC50 Pancr. PaCa-2
Protocol: (§1) Cell proliferation assays were performed as described previously (Müller et al., (1996) J. Med. Chem. 39: 3132-3138; Müller et al., (1994) J. Med. Chem. 37: 1660-1669). More specifically, exponentially growing cells were seeded at 1,000 cells per well in six-well plates and allowed to attach for 24 h. […] Control wells were treated with equivalent volumes of DMSO. After 4 h, the supernatant was removed and fresh medium was added. Cultures were observed daily for 10-15 days and then were fixed and stained. Colonies of greater than 30 cells were scored as survivors. The assays of the present invention as shown in Table 2 and methods of measuring induction of E2F activity and elevation of E2F levels can be carried out following the descriptions found in Li et al., (2003) Proc Natl Acad Sci USA. 100(5): 2674-8 and U.S. Patent Application Publication No.2002/0169135, both incorporated herein by reference in their entireties.

[2] = system: MCF 10A normal breast epithelial cells; experiment: Cell proliferation (colony formation) assay, MCF10A normal cells; assay type: cell-based; conditions: Homo sapiens, normal cell line MCF10A, 4 h exposure, colonies scored after 10-15 days, compounds added in micromolar concentrations, read-out: Average IC50 Normal Cell Lines Breast MCF10A
Protocol: as §1

[3] = system: DLD1 human colon carcinoma cells; experiment: Cell proliferation (colony formation) assay, DLD1; assay type: cell-based; conditions: DLD-1, cancer cell line DLD1, 4 h exposure, colonies scored after 10-15 days, compounds added in micromolar concentrations
Protocol: as §1

[4] = system: NCM 460 normal colonic epithelial cells; experiment: Cell proliferation (colony formation) assay, NCM460 normal cells; assay type: cell-based; conditions: Homo sapiens; normal cell line NCM460; 4 h exposure, colonies scored after 10-15 days; compounds added in micromolar concentrations; read-out: Average IC50 Normal Cell Lines Colon NCM460
Protocol: as §1

[5] = system: SW-480 human colon carcinoma cells; experiment: Cell proliferation (colony formation) assay, SW480; assay type: cell-based; conditions: cancer cell line SW480, 4 h exposure, colonies scored after 10-15 days, compounds added in micromolar concentrations
Protocol: as §1

[6] = system: HT-29 human colon carcinoma cells; experiment: Cell proliferation (colony formation) assay, HT-29; assay type: cell-based; conditions: cancer cell line HT-29, 4 h exposure, colonies scored after 10-15 days, compounds added in micromolar concentrations
Protocol: as §1

[7] = system: MCF-7 human breast carcinoma cells; experiment: Cell proliferation (colony formation) assay, MCF7; assay type: cell-based; conditions: cancer cell line MCF7, 4 h exposure, colonies scored after 10-15 days, compounds added in micromolar concentrations
Protocol: as §1

[8] = system: A549 human lung carcinoma cells; experiment: Cell proliferation (colony formation) assay, A549; assay type: cell-based; conditions: cancer cell line A549, 4 h exposure, colonies scored after 10-15 days, compounds added in micromolar concentrations
Protocol: as §1, with “The assays of the present invention as shown in Table 2 and methods of measuring induction of E2F activity and elevation of E2F levels can be carried out following the descriptions found in Li et al., (2003) Proc Natl Acad Sci USA.” left out

[9] = system: normal fresh or proliferating human PBMC; conditions: cited from earlier work
[10] = system: cancer cell lines and normal cells; conditions: Li et al. 2003; cited from earlier work
human cancer cell lines = conditions: single agent; typical range; read-out: antineoplastic activity against human cancer cell lines (IC50); cited from earlier work
[11] = system: E2F family of transcription factors; conditions: cancer cells versus normal cells; cited from earlier work

IC50 [1] | IC50 [3] | IC50 [5] | IC50 [6] | IC50 [7] | IC50 [8] | SMILES | IC50 [2] | IC50 [4] | cytotoxic effects on normal human PBMC [9] | induction of apoptosis in cancer cell lines versus normal cells [10] | IC50 (human cancer cell lines) | induction of sustained E2F activity in nuclei of cancer cells but not in normal cells [11]
1500 nM | 2000 nM | 1500 nM | 1800 nM | 1000 nM | 1700 nM | CC1(C)CCC2=C(S1)c1ccccc1C(=O)C2=O [Compound 1, 3,4-dihydro-2,2-dimethyl-2H-naphtho[1,2-b]thiopyran-5,6-dione] | 6700 nM | 7500 nM | – | – | – | –
2300 nM | – | – | 2200 nM | – | 2000 nM | O=C1C(=O)c2ccccc2C2=C1C(c1ccccc1)CCS2 (stereo not drawn) [Compound 7, 3,4-dihydro-4-phenyl-2H-naphtho[1,2-b]thiopyran-5,6-dione] | 7000 nM | 8800 nM | – | – | – | –
2200 nM | – | – | 4000 nM | – | 3100 nM | CC1SC2=C(OC1(C)C)C(=O)C(=O)c1ccccc12 (stereo not drawn) [Compound 12, 2,2,3-trimethyl-11,12-dehydro-naphtho[1,2-b]thioxane-9,10-dione] | 14100 nM | 13100 nM | – | – | – | –
– | 32000 nM | 32000 nM | – | 16000 nM | – | CC1(C)CCC2=C(S1)C(=O)c1ccccc1C2=O [Compound 2, 3,4-dihydro-2,2-dimethyl-2H-naphtho[2,3-b]thiopyran-5,10-dione] | – | – | – | – | – | –
2000 nM | – | 1000 nM | 2000 nM | – | 1800 nM | CC1OC2=C(SC1C)c1ccccc1C(=O)C2=O (stereo not drawn) [Compound 10, 2,3-dimethyl-11,12-dehydro-naphtho[1,2-b]thioxane-9,10-dione] | 8000 nM | 6100 nM | – | – | – | –
– | 900 nM | 900 nM | 1500 nM | 1000 nM | – | CC1SC2=C(C(=O)C(=O)c3ccccc32)C1(C)C (stereo not drawn) [Compound 3, 2,3,3-trimethyl-2H-3H-naphtho[1,2-b]thiophene-4,5-dione] | – | 2000 nM | – | – | – | –
1200 nM | – | – | 1600 nM | – | 1600 nM | CC1(C)CCSC2=C1C(=O)C(=O)c1ccccc12 [Compound 6, 3,4-dihydro4,4-dimethyl-2H-naphtho[1,2-b]thiopyran-5,6-dione] | 6300 nM | 6000 nM | – | – | – | –
– | 2800 nM | 2800 nM | – | 1000 nM | – | CC1OC2=C(C(=O)C(=O)c3ccccc32)C1(C)C (stereo not drawn) [Dunnione, 2,3,3-trimethyl-2,3,4,5-tetrahydro-naphtho(2,3-b)dihydrofuran-6,7-dione, reference compound] | – | 4000 nM | – | – | – | –
1600 nM | 3600 nM | 3300 nM | 2100 nM | 1000 nM | – | CC1(C)CCC2=C(O1)c1ccccc1C(=O)C2=O [β-Lapachone, 3,4-dihydro-2,2-dimethyl-2H-naphtho[1,2-b]pyran-5,6-dione, reference compound] | 5800 nM | 8100 nM | No cytotoxic effects | induces apoptosis only in cancer cell lines and not in normal cells | 1000 to 10000 nM | induces sustained E2F activity
1300 nM | – | – | 1700 nM | – | 2300 nM | CC1SC2=C(C(=O)C(=O)c3ccccc32)C1(c1ccccc1)c1ccccc1 (stereo not drawn) [Compound 5, 2-methyl-3,3-diphenyl-2H-3H-naphtho[1,2-b]thiophene4,5-dione] | 5900 nM | 7800 nM | – | – | – | –
1400 nM | – | 1500 nM | 1500 nM | – | 2000 nM | CC1CSC2=C(O1)C(=O)C(=O)c1ccccc12 (stereo not drawn) [Compound 9, 2-methyl-11,12-dehydro-naphtho[1,2-b]thioxane-9,10-dione] | 6400 nM | 4900 nM | – | – | – | –

Reference: patent US20040266857A1, “Novel lapachone compounds and methods of use thereof” (priority 2002, published 2004)
